Assays:
[1] = system: K562; assay: cells; format: functional, cell-based; details: Homo sapiens
Description: Cytotoxic property against K562 cell line was determined

[2] = system: MCF7; assay: cells; format: functional, cell-based; details: Homo sapiens
Description: Cytotoxic property against MCF-7 cell line was determined

Row | SMILES | IC50 [1] | IC50 [2]
1 | CC(C)n1cnc2c(Nc3cccc(Cl)c3)nc(NC3CCC(N)CC3)nc21 (stereo not given) | 1.4 µM | 1.1 µM
2 | Cc1nc2c(Nc3cccc(Cl)c3)nc(NC3CCC(N)CC3)nc2n1C(C)C (stereo not given) | 3.5 µM | 8 µM
3 | CCC(CO)Nc1nc(NCc2ccccc2)c2nc(Br)n(C(C)C)c2n1 (stereo not given) | 27 µM | 53 µM
4 | CCC(CO)Nc1nc(NCc2ccccc2)c2nc(S)n(C(C)C)c2n1 (stereo not given) | 154 µM | 55 µM
5 | CCC(CO)Nc1nc(NCc2ccccc2)c2nc(O)n(C(C)C)c2n1 (stereo not given) | 74 µM | 
6 | CCC(CO)Nc1nc(NCc2ccccc2)c2nc([N+](=O)[O-])n(C(C)C)c2n1 (stereo not given) | 117 µM | 117 µM
7 | CCC(CO)Nc1nc(NCc2ccccc2)c2nc(N)n(C(C)C)c2n1 (stereo not given) | 80 µM | 60 µM
8 | CCC(CO)Nc1nc(NCc2ccccc2)c2nc(Cl)n(C(C)C)c2n1 (stereo not given) | 91 µM | 54 µM
9 | CCC(CO)Nc1nc(NCc2cccc(O)c2)c2nc(Cl)n(C(C)C)c2n1 (stereo not given) | 27 µM | 27 µM
10 | CC(C)C(CO)Nc1nc(Nc2cccc(Cl)c2)c2nc(Cl)n(C(C)C)c2n1 (stereo not given) | 21 µM | 45 µM
11 | CCCOc1nc2c(NCc3ccccc3)nc(NC(CC)CO)nc2n1C(C)C (stereo not given) | 20 µM | 50 µM
12 | CCC(CO)Nc1nc(NCc2ccccc2)c2nc(NCCCO)n(C(C)C)c2n1 (stereo not given) | 30 µM | 40 µM
13 | CCC(CO)Nc1nc(NCc2ccccc2)c2nc(C)n(C(C)C)c2n1 (stereo not given) | 58 µM | 94 µM

Source: ChEMBL document CHEMBL1136199, “2,6,8,9-tetrasubstituted purines as new CDK1 inhibitors” (Bioorg Med Chem Lett, 2003)
